What was measured:
Format in all cases: in vivo
[1] = test system: barnyardgrass (Echinochloa crus-galli (L.) P. Beauv. var. crus-galli); assay: Test Example 3: herbicidal effect by application to upland field (foliage treatment); conditions: foliage treatment, 1,000 g active ingredient per 1 hectare, 14th day after application, greenhouse
Outline: (§1)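 Dose 1,000 g active ingredient/ha, sprayed as diluted wettable powder over entire plants two weeks after sowing in field soil. Kept in greenhouse; herbicidal effect graded on a standard scale on day 14.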

[2] = test system: slender amaranth (Amaranthus viridis L.); assay: as above; conditions: foliage treatment, 1,000 g active ingredient per 1 hectare, 14th day after application, greenhouse
Outline: as §1

[3] = test system: green foxtail (Setaria viridis (L.) P. Beauv.); assay: as above; conditions: foliage treatment, 1,000 g active ingredient per 1 hectare, 14th day after application, greenhouse
Outline: as §1

[4] = test system: velvetleaf (Abutilon theophrasti medicus); assay: as above; conditions: foliage treatment, 1,000 g active ingredient per 1 hectare, 14th day after application, greenhouse
Outline: as §1

[5] = test system: barnyardgrass (Echinochloa crus-galli (L.) P. Beauv. var. crus-galli); assay: Test Example 2: herbicidal effect by soil application to upland field; conditions: soil surface spray, upland field soil, 1,000 g active ingredient per hectare, 21st day after application
Outline: (§2)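 Soil-applied wettable powder, 1,000 g a.i./ha, sprayed after sowing onto covered field soil. Effect rated on a standard scale 21 days later in a greenhouse.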

[6] = test system: slender amaranth (Amaranthus viridis L.); assay: as above; conditions: soil surface spray, upland field soil, 1,000 g active ingredient per hectare, 21st day after application
Outline: as §2

[7] = test system: green foxtail (Setaria viridis (L.) P. Beauv.); assay: as above; conditions: soil surface spray, upland field soil, 1,000 g active ingredient per hectare, 21st day after application
Outline: as §2

[8] = test system: velvetleaf (Abutilon theophrasti medicus); assay: as above; conditions: soil surface spray, upland field soil, 1,000 g active ingredient per hectare, 21st day after application
Outline: as §2

[9] = test system: Japanese bulrush (Scirpus juncoides Roxb.); assay: Test Example 1: herbicidal effect by soil application to paddy field; conditions: paddy field soil application; active ingredient 1,000 g per 1 hectare; wettable powder added dropwise to water surface the day after sowing; examined on the 21st day after application
Outline: (§3)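 Under greenhouse conditions, seeds sown on puddled paddy soil in 100 cm2 pots under 3 cm of standing water received the test compound; injury was assessed with a standard scoring scheme three weeks (day 21) after treatment.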

[10] = test system: early watergrass (Echinochloa oryzicola Vasing); assay: as above; conditions: paddy field soil application; active ingredient 1,000 g per 1 hectare; wettable powder added dropwise to water surface the day after sowing; examined on the 21st day after application
Outline: as §3

[11] = test system: heartshape false pickerelweed (Monochoria vaginalis (Burm.f.) C.Presl); assay: as above; conditions: paddy field soil application; active ingredient 1,000 g per 1 hectare; wettable powder added dropwise to water surface the day after sowing; examined on the 21st day after application
Outline: as §3

Row | Structure (SMILES) | herbicidal effect, Barnyardgrass [1] | herbicidal effect, Slender Amaranth [2] | herbicidal effect, Green Foxtail [3] | herbicidal effect, Velvetleaf [4] | herbicidal effect (index), Barnyardgrass [5] | herbicidal effect (index), Slender Amaranth [6] | herbicidal effect (index), Green Foxtail [7] | herbicidal effect (index), Velvetleaf [8] | herbicidal effect, Scirpus juncoides Roxb. [9] | herbicidal effect, Echinochloa oryzicola Vasing [10] | herbicidal effect, Monochoria vaginalis (Burm. f.) C. Presl [11]
1 | COCCCn1c(C(F)(F)F)ccc(C(=O)C2=C(O)C3CCC(C3)C2=O)c1=O (stereo not shown) [III-22] | 5 (90% or more of herbicidal effect and crop phytotoxicity) | 5 (90% or more of herbicidal effect and crop phytotoxicity) | 5 (90% or more of herbicidal effect and crop phytotoxicity) | 5 (90% or more of herbicidal effect and crop phytotoxicity) | 5 (90% or more of herbicidal effect and crop phytotoxicity) | 5 (90% or more of herbicidal effect and crop phytotoxicity) | 5 (90% or more of herbicidal effect and crop phytotoxicity) | 5 (90% or more of herbicidal effect and crop phytotoxicity) | 5 (90% or more of herbicidal effect and crop phytotoxicity) | 5 (90% or more of herbicidal effect and crop phytotoxicity) | 5 (90% or more of herbicidal effect and crop phytotoxicity)
2 | Cn1ncc(C(=O)c2ccc(C(F)(F)F)n(-c3cc(F)cc(F)c3)c2=O)c1O [IV-80] | 5 (90% or more of herbicidal effect and crop phytotoxicity) | 5 (90% or more of herbicidal effect and crop phytotoxicity) | 5 (90% or more of herbicidal effect and crop phytotoxicity) | 5 (90% or more of herbicidal effect and crop phytotoxicity) | 5 (90% or more of herbicidal effect and crop phytotoxicity) | 5 (90% or more of herbicidal effect and crop phytotoxicity) | 5 (90% or more of herbicidal effect and crop phytotoxicity) | 5 (90% or more of herbicidal effect and crop phytotoxicity) | 5 (90% or more of herbicidal effect and crop phytotoxicity) | 5 (90% or more of herbicidal effect and crop phytotoxicity) | 5 (90% or more of herbicidal effect and crop phytotoxicity)
3 | CCCS(=O)(=O)Oc1c(C(=O)c2ccc(C(F)(F)F)n(CC(OC)OC)c2=O)cnn1C [IV-118] | 5 (90% or more of herbicidal effect and crop phytotoxicity) | 5 (90% or more of herbicidal effect and crop phytotoxicity) | 5 (90% or more of herbicidal effect and crop phytotoxicity) | 5 (90% or more of herbicidal effect and crop phytotoxicity) | 5 (90% or more of herbicidal effect and crop phytotoxicity) | 5 (90% or more of herbicidal effect and crop phytotoxicity) | 5 (90% or more of herbicidal effect and crop phytotoxicity) | 5 (90% or more of herbicidal effect and crop phytotoxicity) | 5 (90% or more of herbicidal effect and crop phytotoxicity) | 5 (90% or more of herbicidal effect and crop phytotoxicity) | 5 (90% or more of herbicidal effect and crop phytotoxicity)
4 | Cn1ncc(C(=O)c2ccc(C(F)(F)F)n(-c3ccccc3)c2=O)c1O [IV-62] | 5 (90% or more of herbicidal effect and crop phytotoxicity) | 5 (90% or more of herbicidal effect and crop phytotoxicity) | 5 (90% or more of herbicidal effect and crop phytotoxicity) | 5 (90% or more of herbicidal effect and crop phytotoxicity) | 5 (90% or more of herbicidal effect and crop phytotoxicity) | 5 (90% or more of herbicidal effect and crop phytotoxicity) | 5 (90% or more of herbicidal effect and crop phytotoxicity) | 5 (90% or more of herbicidal effect and crop phytotoxicity) | 5 (90% or more of herbicidal effect and crop phytotoxicity) | 5 (90% or more of herbicidal effect and crop phytotoxicity) | 5 (90% or more of herbicidal effect and crop phytotoxicity)
5 | COc1cncc(-n2c(C(F)(F)F)ccc(C(=O)C3=C(O)CCCC3=O)c2=O)c1 [I-151] | 5 (90% or more of herbicidal effect and crop phytotoxicity) | 5 (90% or more of herbicidal effect and crop phytotoxicity) | 5 (90% or more of herbicidal effect and crop phytotoxicity) | 5 (90% or more of herbicidal effect and crop phytotoxicity) | 5 (90% or more of herbicidal effect and crop phytotoxicity) | 5 (90% or more of herbicidal effect and crop phytotoxicity) | 5 (90% or more of herbicidal effect and crop phytotoxicity) | 5 (90% or more of herbicidal effect and crop phytotoxicity) | 5 (90% or more of herbicidal effect and crop phytotoxicity) | 5 (90% or more of herbicidal effect and crop phytotoxicity) | 5 (90% or more of herbicidal effect and crop phytotoxicity)
6 | COc1ccc(-n2c(C(F)(F)F)ccc(C(=O)C3=C(O)CCCC3=O)c2=O)cc1F [I-109] | 5 (90% or more of herbicidal effect and crop phytotoxicity) | 5 (90% or more of herbicidal effect and crop phytotoxicity) | 4 (70 to less than 90% of herbicidal effect and crop phytotoxicity) | 5 (90% or more of herbicidal effect and crop phytotoxicity) | 5 (90% or more of herbicidal effect and crop phytotoxicity) | 5 (90% or more of herbicidal effect and crop phytotoxicity) | 5 (90% or more of herbicidal effect and crop phytotoxicity) | 5 (90% or more of herbicidal effect and crop phytotoxicity) | 5 (90% or more of herbicidal effect and crop phytotoxicity) | 4 (70 to less than 90% of herbicidal effect and crop phytotoxicity) | 5 (90% or more of herbicidal effect and crop phytotoxicity)
7 | Cn1ncc(C(=O)c2ccc(C(F)(F)F)n(C)c2=O)c1OC(=O)c1ccc(C(C)(C)C)cc1 [IV-198] | 4 (70 to less than 90% of herbicidal effect and crop phytotoxicity) | 5 (90% or more of herbicidal effect and crop phytotoxicity) | 3 (50 to less than 70% of herbicidal effect and crop phytotoxicity) | 5 (90% or more of herbicidal effect and crop phytotoxicity) | 3 (50 to less than 70% of herbicidal effect and crop phytotoxicity) | 5 (90% or more of herbicidal effect and crop phytotoxicity) | 3 (50 to less than 70% of herbicidal effect and crop phytotoxicity) | 4 (70 to less than 90% of herbicidal effect and crop phytotoxicity) | 5 (90% or more of herbicidal effect and crop phytotoxicity) | 5 (90% or more of herbicidal effect and crop phytotoxicity) | 5 (90% or more of herbicidal effect and crop phytotoxicity)
8 | Cn1c(C(F)(F)C(F)(F)F)ccc(C(=O)C2=C(O)CCCC2=O)c1=O [I-227] | 3 (50 to less than 70% of herbicidal effect and crop phytotoxicity) | 5 (90% or more of herbicidal effect and crop phytotoxicity) | 5 (90% or more of herbicidal effect and crop phytotoxicity) | 5 (90% or more of herbicidal effect and crop phytotoxicity) | 4 (70 to less than 90% of herbicidal effect and crop phytotoxicity) | 5 (90% or more of herbicidal effect and crop phytotoxicity) | 5 (90% or more of herbicidal effect and crop phytotoxicity) | 5 (90% or more of herbicidal effect and crop phytotoxicity) | 5 (90% or more of herbicidal effect and crop phytotoxicity) | 5 (90% or more of herbicidal effect and crop phytotoxicity) | 5 (90% or more of herbicidal effect and crop phytotoxicity)
